Our source for the T/C values is PubChem BioAssay AID248 (DTP/NCI, 2004).

Structures are written as SMILES. Several values for one entry are separate records, joined by “and”; a condition that tells them apart may be missing. Equal entries are not always repeated. Inconclusive results and toxic doses are left out.

The assay has as its system L1210 leukemia ip in BDF1 mice, survival T/C. The assay is described as follows: NCI In Vivo Anticancer Drug Screen. Data for tumor model L1210 Leukemia (intraperitoneal) in B6D2F1 (BDF1) mice. The following applies: endpoint: mean survival time, higher = longer survival. Summed up:
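Read-out is survival time, reported as the treated-group measurement over the vehicle-control measurement.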

[1] abbreviates: dose: 100.0 mg/kg/injection, schedule: Q04DX003 (ip), vehicle: saline with Tween-80.
Setting [2] is: dose: 200.0 mg/kg/injection, schedule: Q04DX003 (ip), vehicle: saline with Tween-80.
The mark [3] stands for this setting: dose: 50.0 mg/kg/injection, schedule: Q01DX009 (ip), vehicle: saline.
[4] abbreviates: dose: 100.0 mg/kg/injection, schedule: Q01DX009 (ip), vehicle: saline.
Setting [5] is: dose: 100.0 mg/kg/injection, schedule: Q04DX003 (ip), vehicle: saline.
Setting [6] is: dose: 200.0 mg/kg/injection, schedule: Q04DX003 (ip), vehicle: saline.
Setting [7] is: dose: 200.0 mg/kg/injection, schedule: Q01DX009 (ip), vehicle: saline.
The mark [8] stands for this setting: dose: 100.0 mg/kg/injection, schedule: Q01DX001 (ip), vehicle: saline.
The mark [9] stands for this setting: dose: 200.0 mg/kg/injection, schedule: Q01DX001 (ip), vehicle: saline.
Where [10] appears, read: dose: 400.0 mg/kg/injection, schedule: Q01DX001 (ip), vehicle: saline.
Setting [11] is: dose: 100.0 mg/kg/injection, schedule: Q01DX001 (ip), vehicle: carboxymethylcellulose (CMC).
Where [12] appears, read: dose: 200.0 mg/kg/injection, schedule: Q01DX001 (ip), vehicle: carboxymethylcellulose (CMC).
Setting [13] is: dose: 400.0 mg/kg/injection, schedule: Q01DX001 (ip), vehicle: carboxymethylcellulose (CMC).
The mark [14] stands for this setting: dose: 100.0 mg/kg/injection, schedule: Q04DX002 (ip), vehicle: saline with Tween-80.
The mark [15] stands for this setting: dose: 200.0 mg/kg/injection, schedule: Q04DX002 (ip), vehicle: saline with Tween-80.
The mark [16] stands for this setting: dose: 400.0 mg/kg/injection, schedule: Q04DX002 (ip), vehicle: saline with Tween-80.
Where [17] appears, read: dose: 400.0 mg/kg/injection, schedule: Q04DX003 (ip), vehicle: saline with Tween-80.
Setting [18] is: dose: 50.0 mg/kg/injection, schedule: Q01DX009 (ip), vehicle: saline with Tween-80.
Setting [19] is: dose: 100.0 mg/kg/injection, schedule: Q01DX009 (ip), vehicle: saline with Tween-80.
Where [20] appears, read: dose: 200.0 mg/kg/injection, schedule: Q01DX009 (ip), vehicle: saline with Tween-80.

Turning to `Cn1cnc([N+](=O)[O-])c1Sc1ncnc2nc[nH]c12`, the T/C (dose: 8.0 mg/kg/injection, schedule: Q01DX Z (ip), vehicle: methylcellulose (MC)) was 109 % of control; the T/C (dose: 12.0 mg/kg/injection, schedule: Q01DX Z (ip), vehicle: methylcellulose (MC)) is 112 % of control; the T/C (dose: 17.0 mg/kg/injection, schedule: Q01DX Z (ip), vehicle: methylcellulose (MC)) is 117 % of control; the T/C (dose: 25.0 mg/kg/injection, schedule: Q01DX Z (ip), vehicle: methylcellulose (MC)) is 104 % of control; the T/C (dose: 62.0 mg/kg/injection, schedule: Q01DX001 (ip), vehicle: carboxymethylcellulose (CMC)) was 124 % of control; the T/C (dose: 250.0 mg/kg/injection, schedule: Q01DX001 (ip), vehicle: carboxymethylcellulose (CMC)) was 150 % of control. Under “dose: 500.0 mg/kg/injection, schedule: Q01DX001 (ip), vehicle: carboxymethylcellulose (CMC)”, the T/C was 165 % of control.
As for `N/N=C1/CCN2CCCc3cccc1c32`, the T/C was 101 % of control under setting [1] and 96 % of control under setting [2].
As for `CC1CN(c2ccc([N+](=O)[O-])cc2)C(C)CN1` (stereo not drawn), the T/C (dose: 6.25 mg/kg/injection, schedule: Q01DX009 (ip), vehicle: saline) is 102 % of control; the T/C (dose: 12.5 mg/kg/injection, schedule: Q01DX009 (ip), vehicle: saline) was 91 % of control; the T/C (dose: 25.0 mg/kg/injection, schedule: Q01DX009 (ip), vehicle: saline) was 102 % of control; the T/C under setting [3] is 97 % of control and 101 % of control; the T/C under setting [4] is 88 % of control; the T/C under setting [5] is 98 % of control. Moreover, under setting [6], the T/C is 100 % of control.
As to `O=C1/C(=C\c2ccccc2)OC(c2ccccc2)O/C1=C/c1ccccc1` (stereo not drawn), the T/C by setting is: under setting [4], 91 % of control; under setting [5], 91 % of control; under setting [7], 98 % of control; under setting [6], 96 % of control; (dose: 400.0 mg/kg/injection, schedule: Q01DX009 (ip), vehicle: saline) 88 % of control; (dose: 400.0 mg/kg/injection, schedule: Q04DX003 (ip), vehicle: saline) 98 % of control.
As for `Nc1cc(OCc2ccccc2)ncn1`, the T/C runs as follows: (dose: 25.0 mg/kg/injection, schedule: Q01DX001 (ip), vehicle: Klucel (hydroxypropylcellulose) (HPC)) 103 % of control; (dose: 50.0 mg/kg/injection, schedule: Q01DX001 (ip), vehicle: Klucel (hydroxypropylcellulose) (HPC)) 109 % of control; (dose: 100.0 mg/kg/injection, schedule: Q01DX001 (ip), vehicle: Klucel (hydroxypropylcellulose) (HPC)) 97 % of control.
As to `CCOC(=O)C[N+]1(C)C2CCC1CC(O)C2` (stereo not drawn), the T/C under setting [8] is 94 % of control, the T/C under setting [9] is 90 % of control and the T/C under setting [10] was 94 % of control.
Turning to `COc1ccc(Cl)cc1CC=O`, the T/C runs as follows: under setting [11], 118 % of control; under setting [12], 118 % of control; under setting [13], 114 % of control.
`CCCCCCCCCCCCBr`: the T/C was 102 % of control under setting [14], 97 % of control under setting [15] and 102 % of control under setting [16].
With `Cc1ccc(C(C)C)c(OCC2=NCCN2C)c1`, the T/C by setting is: under setting [3], 100 % of control; under setting [4], 98 % of control; under setting [7], 115 % of control.
Consider `COc1ccc2c(c1OC)CCN1C3=C(CC4(CC3)OCCO4)C(=O)CC21` (stereo not drawn), for which the T/C is 97 % of control under setting [1], 88 % of control under setting [2] and 101 % of control under setting [17].
Consider `Oc1ccc(-c2ccc(O)c(O)c2)cc1O`, for which the T/C was 100 % of control (dose: 75.0 mg/kg/injection, schedule: Q01DX001 (ip), vehicle: carboxymethylcellulose (CMC)) and 95 % of control (dose: 150.0 mg/kg/injection, schedule: Q01DX001 (ip), vehicle: carboxymethylcellulose (CMC)).
For `COC(=O)Nc1ccccc1[N+](=O)[O-]`, the T/C runs as follows: (dose: 100.0 mg/kg/injection, schedule: Q04DX003 (ip), vehicle: other) 103 % of control; (dose: 200.0 mg/kg/injection, schedule: Q04DX003 (ip), vehicle: other) 101 % of control; (dose: 400.0 mg/kg/injection, schedule: Q04DX003 (ip), vehicle: other) 111 % of control.
Consider `Nc1ncnc2c1nnn2CCCCCC(=O)O`, for which the T/C reads like this: under setting [1], 100 % of control; under setting [2], 101 % of control; under setting [17], 97 % of control.
`CC(C)(C)O[Si](OCC(F)(F)C(F)(F)C(F)(F)C(F)(F)C(F)(F)C(F)F)(OCC(F)(F)C(F)(F)C(F)(F)C(F)(F)C(F)(F)C(F)F)OC(C)(C)C`: the T/C reads like this: (dose: 50.0 mg/kg/injection, schedule: Q01DX001 (ip), vehicle: carboxymethylcellulose (CMC)) 100 % of control; under setting [11], 94 % of control; under setting [12], 94 % of control; under setting [13], 94 % of control.
As to `COc1ccc(/C=N/NC(=O)c2ccccc2Cl)cc1OC`, the T/C was 102 % of control under setting [18], 91 % of control under setting [19] and 88 % of control under setting [20].
As for `CCCCCCCCCCS`, the T/C is 114 % of control under setting [11] and 101 % of control under setting [12].
Turning to `Cc1cc2c(cc1C)C(O)C(N1CCCCC1)CCC2` (stereo not drawn), the T/C by setting is: under setting [1], 100 % of control; under setting [2], 92 % of control; under setting [17], 90 % of control.
On to `CCOC(=O)NCc1ccco1`, for which the T/C by setting is: (dose: 5.0 mg/kg/injection, schedule: Q01DX009 (ip), vehicle: saline) 89 % of control; (dose: 10.0 mg/kg/injection, schedule: Q01DX009 (ip), vehicle: saline) 109 % of control; (dose: 20.0 mg/kg/injection, schedule: Q01DX009 (ip), vehicle: saline) 93 % of control.
For `CC(=O)Nc1c(Cl)cc2c(c1Cl)Cc1cc(N=Cc3ccc4c(c3)OCO4)ccc1-2`, the T/C runs as follows: (dose: 100.0 mg/kg/injection, schedule: Q01DX001 (ip), vehicle: other) 91 % of control; (dose: 200.0 mg/kg/injection, schedule: Q01DX001 (ip), vehicle: other) 101 % of control; (dose: 400.0 mg/kg/injection, schedule: Q01DX001 (ip), vehicle: other) 100 % of control.
Regarding `CC1CCN(C(CC(=O)c2ccccc2)C(=O)c2ccccc2)CC1` (stereo not drawn), the T/C reads like this: (dose: 50.0 mg/kg/injection, schedule: Q01DX001 (ip), vehicle: saline) 104 % of control; under setting [8], 98 % of control; under setting [9], 102 % of control; under setting [10], 96 % of control.
For the compound `C#CCOCC(CCl)OC(N)=O` (stereo not drawn), the T/C was 121 % of control under setting [18]; 104 % of control (dose: 50.0 mg/kg/injection, schedule: Q04DX003 (ip), vehicle: saline with Tween-80); 105 % of control under setting [19]; 101 % of control under setting [1]; 106 % of control under setting [20]; 110 % of control under setting [2].
As to `Cc1ccc(S(=O)(=O)c2ccc(S(=O)(=O)c3ccccc3)cc2)cc1`, the T/C under setting [8] was 95 % of control and 92 % of control; the T/C under setting [9] was 97 % of control; the T/C under setting [10] is 105 % of control and 91 % of control.
With `CC(C)NCC1CCCCO1` (stereo not drawn), the T/C is, setting by setting: (dose: 55.0 mg/kg/injection, schedule: Q01DX Z (ip), vehicle: methylcellulose (MC)) 91 % of control; (dose: 83.0 mg/kg/injection, schedule: Q01DX Z (ip), vehicle: methylcellulose (MC)) 88 % of control; (dose: 125.0 mg/kg/injection, schedule: Q01DX Z (ip), vehicle: methylcellulose (MC)) 100 % of control.
For `CCOC(=O)c1cc(Cl)ccc1O`, the T/C was 89 % of control under setting [14], 92 % of control under setting [15] and 92 % of control under setting [16].
Consider `CC1(CC(=O)O)CCCCC1CC(=O)O` (stereo not drawn), for which the T/C is 110 % of control (dose: 100.0 mg/kg/injection, schedule: Q04DX002 (ip), vehicle: Klucel (hydroxypropylcellulose) (HPC)); 103 % of control (dose: 200.0 mg/kg/injection, schedule: Q04DX002 (ip), vehicle: Klucel (hydroxypropylcellulose) (HPC)); 97 % of control (dose: 400.0 mg/kg/injection, schedule: Q04DX002 (ip), vehicle: Klucel (hydroxypropylcellulose) (HPC)).
